From patent US11524966B1 (Valo Early Discovery, Inc., priority 2017, dated 2022)

These compounds were tested against T1, USP28 (His-tagged USP28-FL-mammalian) (Homo sapiens, UniProt Q96RU2) (assay: Ubiquitin-Rhodamine 110 Assay for USP28 Activity, Example A-1(a)). Details: Ubiquitin-Rhodamine 110 assay, Example A-1(a); read-out: USP28 A-1(a) IC50 range.
T1 construct: Expression of USP28 (1-1077)-TEV-6*His (pTT5 vector); made in house; host or cells: Expi293f cells (pTT5 vector)
T1 sequence (Q96RU2 1-1077): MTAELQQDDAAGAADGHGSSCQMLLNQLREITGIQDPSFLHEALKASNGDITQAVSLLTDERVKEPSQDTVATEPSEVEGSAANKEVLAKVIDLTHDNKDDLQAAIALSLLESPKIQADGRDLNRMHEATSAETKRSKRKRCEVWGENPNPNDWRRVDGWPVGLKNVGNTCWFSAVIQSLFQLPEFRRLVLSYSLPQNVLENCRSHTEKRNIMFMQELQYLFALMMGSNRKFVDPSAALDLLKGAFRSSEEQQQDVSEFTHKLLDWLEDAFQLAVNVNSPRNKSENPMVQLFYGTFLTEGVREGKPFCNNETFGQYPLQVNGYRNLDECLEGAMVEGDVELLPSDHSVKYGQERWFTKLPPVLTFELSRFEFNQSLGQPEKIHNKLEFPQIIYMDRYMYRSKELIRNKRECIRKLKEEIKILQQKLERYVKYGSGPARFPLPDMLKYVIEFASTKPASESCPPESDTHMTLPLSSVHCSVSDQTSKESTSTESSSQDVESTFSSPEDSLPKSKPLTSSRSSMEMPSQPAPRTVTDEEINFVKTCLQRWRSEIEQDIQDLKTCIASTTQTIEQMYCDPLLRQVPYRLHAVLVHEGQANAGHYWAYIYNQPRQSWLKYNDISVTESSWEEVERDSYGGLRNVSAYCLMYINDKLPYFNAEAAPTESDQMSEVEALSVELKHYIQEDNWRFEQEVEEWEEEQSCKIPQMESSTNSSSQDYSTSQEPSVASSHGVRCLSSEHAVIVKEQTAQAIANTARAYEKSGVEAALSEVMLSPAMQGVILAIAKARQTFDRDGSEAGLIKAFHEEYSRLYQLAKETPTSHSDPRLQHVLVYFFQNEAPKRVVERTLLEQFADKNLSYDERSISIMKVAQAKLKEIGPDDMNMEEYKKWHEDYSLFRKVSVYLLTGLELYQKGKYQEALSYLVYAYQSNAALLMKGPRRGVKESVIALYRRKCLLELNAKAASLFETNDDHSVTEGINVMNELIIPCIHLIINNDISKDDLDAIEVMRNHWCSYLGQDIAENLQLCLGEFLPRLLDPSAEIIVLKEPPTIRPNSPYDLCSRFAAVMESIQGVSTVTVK
Format: biochemical
In short: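 IC50 from 4-parameter logistic fit of percent inhibition versus no-enzyme and DMSO controls; compounds 25 μM to 1.3 nM, 3-fold. Ub-Rh110 cleavage (25 nM, below Km) by […] mammalian-expressed USP28-FL-His ran 45 min at room temperature, stopped with 10 mM citric acid, read ex 485/em 535.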
For `Cc1ccc2c(N)c(C(=O)N[C@H]3CCc4nc(N5C[C@@H](N)[C@@H](C(F)F)C5)ccc4C3)sc2n1` [Example 346, 3-amino-N-[(6S)-2-[(3S,4S)-3-amino-4-(difluoromethyl)pyrrolidin-1-yl]-5,6,7,8-tetrahydroquinolin-6-yl]-6-methylthieno[2,3-b]pyridine-2-carboxamide], the IC50 was 50 to 200 nM.
With `Cc1ccc2c(N)c(C(=O)N[C@H]3CCc4nc(N5C[C@H](C(F)F)[C@@H](N)C5)ccc4C3)sc2n1` [Example 347, 3-amino-N-[(6S)-2-[(3R,4S)-3-amino-4-(difluoromethyl)pyrrolidin-1-yl]-5,6,7,8-tetrahydroquinolin-6-yl]-6-methylthieno[2,3-b]pyridine-2-carboxamide] the IC50 was 50 to 200 nM.
In the case of `COC[C@@H]1CN(c2ccc3c(n2)OC[C@H](NC(=O)c2sc4nc(C)cc(C)c4c2N)C3)C[C@@H]1N` [Example 348, 3-amino-N-[(3R)-7-[(3R,4R)-3-amino-4-(methoxymethyl)pyrrolidin-1-yl]-2H,3H,4H-pyrano[2,3-b]pyridin-3-yl]-4,6-dimethylthieno[2,3-b]pyridine-2-carboxamide], the IC50 is reported as 50 to 200 nM.
For `COC[C@H]1CN(c2ccc3c(n2)OC[C@H](NC(=O)c2sc4nc(C)cc(C)c4c2N)C3)C[C@H]1N` [Example 349, 3-amino-N-[(3R)-7-[(3S,4S)-3-amino-4-(methoxymethyl)pyrrolidin-1-yl]-2H,3H,4H-pyrano[2,3-b]pyridin-3-yl]-4,6-dimethylthieno[2,3-b]pyridine-2-carboxamide], the IC50 was 50 to 200 nM.
Compound `CN[C@H]1CN(c2ccc3c(c2)OC[C@H](NC(=O)c2sc4nc(C)ccc4c2N)C3)C[C@@H]1O` [Example 350, 3-amino-N-[(3R)-7-[(3S,4S)-3-hydroxy-4-(methylamino)pyrrolidin-1-yl]-3,4-dihydro-2H-1-benzopyran-3-yl]-6-methylthieno[2,3-b]pyridine-2-carboxamide] has an IC50 of 50 to 200 nM.
`CCn1ccc2cc(C(=O)N[C@H]3CCc4nc(N5C[C@H](OC)[C@@H](N)C5)ccc4C3)cnc21` [Example 353, N-[(6S)-2-[(3S,4S)-3-amino-4-methoxypyrrolidin-1-yl]-5,6,7,8-tetrahydroquinolin-6-yl]-1-ethyl-1H-pyrrolo[2,3-b]pyridine-5-carboxamide] gave an IC50 of 200 to 2000 nM.
`Cc1cc(C)c2c(N)c(C(=O)N[C@H]3CCc4nc(N5CC6CCC(C5)N6)ccc4C3)sc2n1` [Example 354, 3-amino-N-[(6S)-2-{3,8-diazabicyclo[3.2.1]octan-3-yl}-5,6,7,8-tetrahydroquinolin-6-yl]-4,6-dimethylthieno[2,3-b]pyridine-2-carboxamide] was tested, and the IC50 was 1 to 50 nM.
In the case of `CCn1cc(Cl)c2cc(C(=O)N[C@H]3COc4c(F)c(N5CC6CCC(C5)N6)cc(F)c4C3)nnc21` [Example 355, 5-chloro-N-[(3R)-7-{3,8-diazabicyclo[3.2.1]octan-3-yl}-5,8-difluoro-3,4-dihydro-2H-1-benzopyran-3-yl]-7-ethyl-7H-pyrrolo[2,3-c]pyridazine-3-carboxamide], the IC50 is reported as 50 to 200 nM.
`CCn1cc(Cl)c2cc(C(=O)N[C@H]3COc4c(C#N)c(N5CC6CCC(C5)N6)cc(F)c4C3)nnc21` [Example 356, 5-chloro-N-[(3R)-8-cyano-7-{3,8-diazabicyclo[3.2.1]octan-3-yl}-5-fluoro-3,4-dihydro-2H-1-benzopyran-3-yl]-7-ethyl-7H-pyrrolo[2,3-c]pyridazine-3-carboxamide] showed an IC50 of 200 to 2000 nM.
Compound `Cc1ccc2c(N)c(C(=O)N[C@H]3CCc4nc(N5C[C@H](N)[C@H](OC(C)(F)F)C5)ccc4C3)sc2n1` [Example 357, 3-amino-N-[(6S)-2-[(3S,4R)-3-amino-4-(1,1-difluoroethoxy)pyrrolidin-1-yl]-5,6,7,8-tetrahydroquinolin-6-yl]-6-methylthieno[2,3-b]pyridine-2-carboxamide] has an IC50 of 50 to 200 nM.
With `Cc1ccc2c(N)c(C(=O)N[C@H]3CCc4nc(N5C[C@@H](N)[C@@H](OC(C)(F)F)C5)ccc4C3)sc2n1` [Example 358, 3-amino-N-[(6S)-2-[(3R,4S)-3-amino-4-(1,1-difluoroethoxy)pyrrolidin-1-yl]-5,6,7,8-tetrahydroquinolin-6-yl]-6-methylthieno[2,3-b]pyridine-2-carboxamide] the IC50 was 200 to 2000 nM.
With `Cc1ccc2c(N)c(C(=O)N[C@H]3CCc4nc(N5C[C@H](N)[C@@H](C(F)(F)F)C5)ccc4C3)sc2n1` [Example 363, 3-amino-N-[(6S)-2-[(3R,4S)-3-amino-4-(trifluoromethyl)pyrrolidin-1-yl]-5,6,7,8-tetrahydroquinolin-6-yl]-6-methylthieno[2,3-b]pyridine-2-carboxamide] the IC50 was 50 to 200 nM.
`Cc1ccc2c(N)c(C(=O)N[C@H]3CCc4nc(N5C[C@@H](N)[C@H](C(F)(F)F)C5)ccc4C3)sc2n1` [Example 364, 3-amino-N-[(6S)-2-[(3S,4R)-3-amino-4-(trifluoromethyl)pyrrolidin-1-yl]-5,6,7,8-tetrahydroquinolin-6-yl]-6-methylthieno[2,3-b]pyridine-2-carboxamide] gave an IC50 of 50 to 200 nM.
In the case of `Cc1cnc2c(N)c(C(=O)N[C@H]3CCc4nc(N5C[C@H](N)C6(COC6)C5)ccc4C3)sc2n1` [Example 365, 7-amino-N-[(6S)-2-[(8R)-8-amino-2-oxa-6-azaspiro[3.4]octan-6-yl]-5,6,7,8-tetrahydroquinolin-6-yl]-3-methylthieno[2,3-b]pyrazine-6-carboxamide], the IC50 is reported as 1 to 50 nM.
Work on `Cc1cnc2c(N)c(C(=O)N[C@H]3CCc4nc(N5C[C@@H](N)C6(COC6)C5)ccc4C3)sc2n1` [Example 366, 7-amino-N-[(6S)-2-[(8S)-8-amino-2-oxa-6-azaspiro[3.4]octan-6-yl]-5,6,7,8-tetrahydroquinolin-6-yl]-3-methylthieno[2,3-b]pyrazine-6-carboxamide] yielded an IC50 of 200 to 2000 nM.
In the case of `Cc1ccc2c(N)c(C(=O)N[C@H]3COc4cc(N5CC[C@H](N)C5)ccc4C3)sc2n1` [Example 369, 3-amino-N-[(3R)-7-[(3S)-3-aminopyrrolidin-1-yl]-3,4-dihydro-2H-1-benzopyran-3-yl]-6-methylthieno[2,3-b]pyridine-2-carboxamide], the IC50 is reported as 1 to 50 nM.
In the case of `Cc1ccc2c(N)c(C(=O)N[C@H]3CCc4nc(N5C[C@H](N)[C@]6(CCCO6)C5)ccc4C3)sc2n1` [Example 390, 3-amino-N-[(6S)-2-[(5S,9S)-9-amino-1-oxa-7-azaspiro[4.4]nonan-7-yl]-5,6,7,8-tetrahydroquinolin-6-yl]-6-methylthieno[2,3-b]pyridine-2-carboxamide], the IC50 is reported as 200 to 2000 nM.
`Cc1ccc2c(N)c(C(=O)N[C@H]3CCc4nc(N5C[C@@H](N)[C@]6(CCCO6)C5)ccc4C3)sc2n1` [Example 391, 3-amino-N-[(6S)-2-[(5S,9R)-9-amino-1-oxa-7-azaspiro[4.4]nonan-7-yl]-5,6,7,8-tetrahydroquinolin-6-yl]-6-methylthieno[2,3-b]pyridine-2-carboxamide] gave an IC50 of 50 to 200 nM.
Work on `Cc1ccc2c(N)c(C(=O)N[C@H]3CCc4nc(N5C[C@@H](N)[C@@]6(CCCO6)C5)ccc4C3)sc2n1` [Example 392, 3-amino-N-[(6S)-2-[(5R,9R)-9-amino-1-oxa-7-azaspiro[4.4]nonan-7-yl]-5,6,7,8-tetrahydroquinolin-6-yl]-6-methylthieno[2,3-b]pyridine-2-carboxamide] yielded an IC50 of 200 to 2000 nM.
For `Cc1ccc2c(N)c(C(=O)N[C@H]3CCc4nc(N5C[C@H](N)[C@@]6(CCCO6)C5)ccc4C3)sc2n1` [Example 393, 3-amino-N-[(6S)-2-[(5R,9S)-9-amino-1-oxa-7-azaspiro[4.4]nonan-7-yl]-5,6,7,8-tetrahydroquinolin-6-yl]-6-methylthieno[2,3-b]pyridine-2-carboxamide], the IC50 was 50 to 200 nM.
